Structures can show the parent of a compound that is named as a salt. Where two headings read alike, the source gives them in different places.
Assays:
[1] = target: T1, SARS-CoV-2 PLpro (nsp3 1564–1878) (Severe acute respiratory syndrome coronavirus 2, UniProt P0DTD1); test: biochemical; design: FRET-quenched peptide (Pro3) cleavage by PLpro, 10 min pre-incubation, slope over 20 min, normalised to no-compound control; conditions: high concentration screen, read-out: % of control remaining
[2] = target: T1, SARS-CoV-2 PLpro (nsp3 1564–1878); test: biochemical; design: FRET-quenched peptide (Pro3) cleavage by PLpro, 10 min pre-incubation, slope over 20 min, normalised to no-compound control; conditions: low concentration screen, read-out: % of control remaining

Structure (SMILES): CO[C@H]1CC[C@@H](O[C@H]2C[C@H]([C@]3(C)CC[C@]4(C[C@H](O)[C@@H](C)[C@@H]([C@@H](C)/C=C(\C)C(=O)[C@H](C)C[C@H](C)C(=O)O)O4)O3)O[C@]3(O[C@@H]([C@H]4O[C@@](O)(CO)[C@H](C)C[C@@H]4C)C[C@@H]3C)[C@@H]2C)O[C@@H]1C [Nanchangmycin]
- remaining activity at 3.75 µM ([1]; Well no.=4861): 104%
- remaining activity at 1.25 µM ([2]; Well no.=4861): 101%

Structure (SMILES): c1ccc2c(CC3=NCCN3)cccc2c1 [Naphazoline (hydrochloride)]
- remaining activity at 3.75 µM ([1]; Well no.=7529): 97.5%
- remaining activity at 1.25 µM ([2]; Well no.=7529): 96.6%

Structure (SMILES): c1ccc2c(CC3=NCCN3)cccc2c1 [Naphazoline]
- remaining activity at 3.75 µM ([1]; Well no.=2007): 103%
- remaining activity at 1.25 µM ([2]; Well no.=2007): 105%

Structure (SMILES): COc1ccc2cc([C@H](C)C(=O)O)ccc2c1 [Naproxen]
- remaining activity at 3.75 µM ([1]; Well no.=1869): 87.1%
- remaining activity at 1.25 µM ([2]; Well no.=1869): 90.4%

Structure (SMILES): CC[C@@H](C(=O)O)[C@@H]1O[C@@H]([C@@H](C)[C@H](O)[C@H](C)C(=O)[C@H](CC)[C@H]2O[C@]3(C=C[C@@H](O)[C@]4(CC[C@@](C)([C@H]5CC[C@](O)(CC)[C@H](C)O5)O4)O3)[C@H](C)C[C@@H]2C)[C@@H](C)C[C@@H]1C [Narasin]
- remaining activity at 3.75 µM ([1]; Well no.=3258): 96%
- remaining activity at 1.25 µM ([2]; Well no.=3258): 94.4%

Structure (SMILES): CNS(=O)(=O)CCc1ccc2[nH]cc(C3CCN(C)CC3)c2c1 [Naratriptan (hydrochloride)]
- remaining activity at 3.75 µM ([1]; Well no.=7385): 100%
- remaining activity at 1.25 µM ([2]; Well no.=7385): 100%

Structure (SMILES): CNS(=O)(=O)CCc1ccc2[nH]cc(C3CCN(C)CC3)c2c1 [Naratriptan HCl]
- remaining activity at 3.75 µM ([1]; Well no.=4909): 99.8%
- remaining activity at 1.25 µM ([2]; Well no.=4909): 97.9%

Structure (SMILES): O=C1C[C@@H](c2ccc(O)cc2)Oc2cc(O)cc(O)c21 [Naringenin]
- remaining activity at 3.75 µM ([1]; Well no.=3326): 98.3%
- remaining activity at 1.25 µM ([2]; Well no.=3326): 96.4%

Structure (SMILES): C[C@@H]1O[C@@H](O[C@H]2[C@H](Oc3cc(O)c(C(=O)CCc4ccc(O)cc4)c(O)c3)O[C@H](CO)[C@@H](O)[C@@H]2O)[C@H](O)[C@H](O)[C@H]1O [Naringin Dihydrochalcone]
- remaining activity at 3.75 µM ([1]; Well no.=8148): 97.1%
- remaining activity at 1.25 µM ([2]; Well no.=8148): 106%

Structure (SMILES): C[C@@H]1O[C@@H](O[C@H]2[C@H](Oc3cc(O)c4c(c3)O[C@H](c3ccc(O)cc3)CC4=O)O[C@H](CO)[C@@H](O)[C@@H]2O)[C@H](O)[C@H](O)[C@H]1O [Naringin]
- remaining activity at 3.75 µM ([1]; Well no.=3665): 99.9%
- remaining activity at 3.75 µM ([1]; Well no.=8098): 97.5%
- remaining activity at 1.25 µM ([2]; Well no.=3665): 98.4%
- remaining activity at 1.25 µM ([2]; Well no.=8098): 97.4%

Structure (SMILES): C[C@@H]1O[C@@H](OC[C@H]2O[C@@H](Oc3cc(O)c4c(c3)O[C@H](c3ccc(O)cc3)CC4=O)[C@H](O)[C@@H](O)[C@@H]2O)[C@H](O)[C@H](O)[C@H]1O [Narirutin]
- remaining activity at 3.75 µM ([1]; Well no.=3347): 93.8%
- remaining activity at 1.25 µM ([2]; Well no.=3347): 91.9%

Structure (SMILES): CC(C)[C@H]1CC[C@H](C(=O)N[C@H](Cc2ccccc2)C(=O)O)CC1 [Nateglinide]
- remaining activity at 3.75 µM ([1]; Well no.=1546): 103%
- remaining activity at 3.75 µM ([1]; Well no.=7504): 102%
- remaining activity at 1.25 µM ([2]; Well no.=1546): 103%
- remaining activity at 1.25 µM ([2]; Well no.=7504): 102%

Structure (SMILES): CC[C@@H](Nc1c(Nc2cccc(C(=O)N(C)C)c2O)c(=O)c1=O)c1ccc(C)o1 [Navarixin]
- remaining activity at 3.75 µM ([1]; Well no.=8175): 101%
- remaining activity at 1.25 µM ([2]; Well no.=8175): 105%

Structure (SMILES): CC1(C)CCC(c2ccc(Cl)cc2)=C(CN2CCN(c3ccc(C(=O)NS(=O)(=O)c4ccc(N[C@H](CCN5CCOCC5)CSc5ccccc5)c(S(=O)(=O)C(F)(F)F)c4)cc3)CC2)C1 [Navitoclax]
- remaining activity at 3.75 µM ([1]; Well no.=6580): 92.2%
- remaining activity at 3.75 µM ([1]; Well no.=8224): 94.8%
- remaining activity at 1.25 µM ([2]; Well no.=6580): 93.1%
- remaining activity at 1.25 µM ([2]; Well no.=8224): 103%

Structure (SMILES): O[C@H](CNC[C@@H](O)[C@H]1CCc2cc(F)ccc2O1)[C@@H]1CCc2cc(F)ccc2O1 [Nebivolol (hydrochloride)]
- remaining activity at 3.75 µM ([1]; Well no.=8139): 102%
- remaining activity at 1.25 µM ([2]; Well no.=8139): 105%

Structure (SMILES): CN1C(=O)N[C@@H](Cc2c[nH]c3c(Cl)cccc23)C1=O [Necrostatin 2 (S enantiomer)]
- remaining activity at 3.75 µM ([1]; Well no.=7166): 94.3%
- remaining activity at 1.25 µM ([2]; Well no.=7166): 97.6%

Structure (SMILES): CN1C(=O)N[C@H](Cc2c[nH]c3c(Cl)cccc23)C1=O [Necrostatin 2]
- remaining activity at 3.75 µM ([1]; Well no.=6916): 98.6%
- remaining activity at 1.25 µM ([2]; Well no.=6916): 99.4%

Structure (SMILES): CN1C(=O)C(Cc2c[nH]c3ccccc23)NC1=S (stereo not shown) [Necrostatin-1]
- remaining activity at 3.75 µM ([1]; Well no.=2493): 98.6%
- remaining activity at 3.75 µM ([1]; Well no.=6196): 92.5%
- remaining activity at 3.75 µM ([1]; Well no.=8505): 104%
- remaining activity at 1.25 µM ([2]; Well no.=2493): 95.6%
- remaining activity at 1.25 µM ([2]; Well no.=6196): 92.6%
- remaining activity at 1.25 µM ([2]; Well no.=8505): 109%

Structure (SMILES): COc1ccc(-n2c(SCC#N)nc3sc4c(c3c2=O)CCCC4)cc1 [Necrostatin-5]
- remaining activity at 3.75 µM ([1]; Well no.=6060): 95.8%
- remaining activity at 1.25 µM ([2]; Well no.=6060): 98.5%

Structure (SMILES): CCCc1c2oc(C(=O)O)cc(=O)c2cc2c(=O)cc(C(=O)O)n(CC)c12 [Nedocromil]
- remaining activity at 3.75 µM ([1]; Well no.=6525): 95%
- remaining activity at 1.25 µM ([2]; Well no.=6525): 95.3%

Structure (SMILES): CCc1nn(CCCN2CCN(c3cccc(Cl)c3)CC2)c(=O)n1CCOc1ccccc1 [Nefazodone (hydrochloride)]
- remaining activity at 3.75 µM ([1]; Well no.=6765): 92.8%
- remaining activity at 1.25 µM ([2]; Well no.=6765): 97.2%

Structure (SMILES): CCc1nn(CCCN2CCN(c3cccc(Cl)c3)CC2)c(=O)n1CCOc1ccccc1 [Nefazodone]
- remaining activity at 3.75 µM ([1]; Well no.=2009): 101%
- remaining activity at 1.25 µM ([2]; Well no.=2009): 101%

Structure (SMILES): Cc1c(O)cccc1C(=O)N[C@@H](CSc1ccccc1)[C@H](O)CN1C[C@H]2CCCC[C@H]2C[C@H]1C(=O)NC(C)(C)C [Nelfinavir mesylate]
- remaining activity at 3.75 µM ([1]; Well no.=2201): 97.3%
- remaining activity at 3.75 µM ([1]; Well no.=8156): 103%
- remaining activity at 1.25 µM ([2]; Well no.=2201): 95.1%
- remaining activity at 1.25 µM ([2]; Well no.=8156): 102%

Structure (SMILES): O=C(/C=C/c1ccc(O)c(O)c1)O[C@@H]1C[C@@](O)(C(=O)O)C[C@@H](O)[C@@H]1O [Neochlorogenic acid]
- remaining activity at 3.75 µM ([1]; Well no.=6490): 98.3%
- remaining activity at 1.25 µM ([2]; Well no.=6490): 98%

Structure (SMILES): COc1ccc([C@@H]2CC(=O)c3c(O)cc(O[C@@H]4O[C@H](CO)[C@@H](O)[C@H](O)[C@H]4O[C@@H]4O[C@@H](C)[C@H](O)[C@@H](O)[C@H]4O)cc3O2)cc1O [Neohesperidin]
- remaining activity at 3.75 µM ([1]; Well no.=3444): 98.5%
- remaining activity at 1.25 µM ([2]; Well no.=3444): 98.8%

Structure (SMILES): NC[C@@H]1O[C@H](O[C@H]2[C@@H](O)[C@H](O[C@@H]3[C@@H](O)[C@H](N)C[C@H](N)[C@H]3O[C@H]3O[C@H](CN)[C@@H](O)[C@H](O)[C@H]3N)O[C@@H]2CO)[C@H](N)[C@@H](O)[C@@H]1O [Neomycin]
- remaining activity at 3.75 µM ([1]; Well no.=1911): 94.6%
- remaining activity at 3.75 µM ([1]; Well no.=3419): 90%
- remaining activity at 1.25 µM ([2]; Well no.=1911): 94.3%
- remaining activity at 1.25 µM ([2]; Well no.=3419): 87.7%

Structure (SMILES): CN(C)C(=O)Oc1cccc([N+](C)(C)C)c1 [Neostigmine methyl sulfate]
- remaining activity at 3.75 µM ([1]; Well no.=6077): 101%
- remaining activity at 1.25 µM ([2]; Well no.=6077): 102%

Structure (SMILES): CN(C)C(=O)Oc1cccc([N+](C)(C)C)c1 [Neostigmine]
- remaining activity at 3.75 µM ([1]; Well no.=1558): 103%
- remaining activity at 1.25 µM ([2]; Well no.=1558): 106%
